{
  "source": "patent US7256024B2",
  "about": "“Tyrissamycin antibiotic” (Bristol-Myers Squibb Company, priority 1998, dated 2007)",
  "key": {"[1]": {"tested_on": "Staphylococcus haemolyticus", "assay": "MIC, microtiter dilution technique", "format": "cell-based", "conditions": "Mueller-Hinton broth, 37° C., 16-24 hours", "method": "(§1) Tyrissamycin was evaluated in vitro to detemine the minimal inhibitory concentrations (MIC) against seven gram-positive bacteria using the microtiter dilution technique. This method is described by T. B. Conrath, “Handbook of Microtiter Procedures,” Dynatech Corp., Cambridge, Mass., USA (1972); and T. L. Gavan et al “Microdilution Test Procedures,” in Manual of Clinical Microbiology, E. H. Lennette, Ed., American Soc. for Microbiol., Washington, D.C., USA (1980). These tests are performed in accordance with procedures established by the National Committee on Clinical Laboratory Standards (NCCLS). The test procedure is as follows: Each well of a sterile 96-well microdilution tray is filled under aseptic conditions with 0.1 ml of Mueller-Hinton broth. A 0.05-ml sample of the test compound solution is added to a well in the first row of the tray. A microdilutor apparatus is used to simultaneously mix the contents of these wells and to transfer aliquots to each succeeding row of cells to obtain a range of serially diluted solutions. The last row of wells is untreated and serves as a control. Each well containing broth and test compound is inoculated with about ten microliters of inoculum of a given test microorganism. One well in the last row of wells (which is free of test compound) is not inoculated and is used as a sterility control. The trays are sealed and incubated at 37° C. for 16-24 hours."}, "[2]": {"tested_on": "Staphylococcus epidermidis", "assay": "MIC, microtiter dilution technique", "format": "cell-based", "conditions": "Mueller-Hinton broth, 37° C., 16-24 hours", "method": "as §1"}, "[3]": {"tested_on": "Staphylococcus aureus", "assay": "MIC, microtiter dilution technique", "format": "cell-based", "conditions": "Mueller-Hinton broth, 37° C., 16-24 hours", "method": "as §1"}, "[4]": {"tested_on": "Enterococcus faecium", "assay": "MIC, microtiter dilution technique", "format": "cell-based", "conditions": "Mueller-Hinton broth, 37° C., 16-24 hours", "method": "as §1"}, "[5]": {"tested_on": "Streptococcus pneumoniae", "assay": "MIC, microtiter dilution technique", "format": "cell-based", "conditions": "Mueller-Hinton broth, 37° C., 16-24 hours", "method": "as §1"}, "[6]": {"tested_on": "Streptococcus pyogenes", "assay": "MIC, microtiter dilution technique", "format": "cell-based", "conditions": "Mueller-Hinton broth, 37° C., 16-24 hours", "method": "as §1"}, "[7]": {"tested_on": "Enterococcus faecalis", "assay": "MIC, microtiter dilution technique", "format": "cell-based", "conditions": "Mueller-Hinton broth, 37° C., 16-24 hours", "method": "as §1"}, "[8]": {"tested_on": "Staphylococcus aureus strain SA1", "assay": "Well-agar diffusion biological assay", "format": "cell-based", "conditions": "sample 5 mg/ml; S. aureus SA1; 7 mm agar wells; fractions of final purification", "method": "Assays for detection and evaluation of the antibacterial activity of tyrissamycin employ various strains of Staphylococcus aureus. The primary biological assay system consists of S. aureus strain SA1.\nSA1 is grown at 37° C. overnight in Antibiotic Assay Broth (BBL, Cockeysville, Md.). The culture is centrifuged at 4000 rpm for 10 minutes and the medium is decanted. Cells are resuspended in 0.9% saline. The culture is adjusted to 25% transmission (600 nm wavelength) using a Coleman Junior Spectrophotometer. This 25% working cell suspension is stored at 4° C. for use as the assay inoculum.\nAll biological assays employ agar diffusion techniques. Assay agar is Seed Agar (BBL) supplemented after autoclaving with 4% of phosphate-nitrate buffer, pH 7.0, and 0.3% of a 2% solution of triphenyltetrazolium chloride. For well-agar diffusion assays, assay agar is seeded with 1% of the working cell suspension of SA1. The seeded agar is poured into Petri dishes or bioassay trays and allowed to harden. Wells (7 mm diameter) are cut in the agar, and 40 μl sample aliquots are added to the wells. (For some assays, 3 μl of sample are spotted directly on the surface of the agar). Plates are incubated at 37° C. for 18-24 hours, and zones of inhibition (if any) are measured. Inhibition zone sizes correlated with the activity of tyrissamycin in various samples."}, "[9]": {"assay": "Solubility", "format": "physicochemical", "excerpt": "A purified sample of tyrissamycin was isolated as a white amorphous powder. […] FIG. 3 (CD3OD) • ^13C-NMR: See FIG. 4 (CD3OD)"}},
  "data": [
    {"substance": "tyrissamycin", "values": [
      {"measurement": "Minimal Inhibitory Concentration", "setting": "[1]", "result": 32, "unit": "µg/mL"},
      {"measurement": "Minimal Inhibitory Concentration", "setting": "[2]", "result": 32, "unit": "µg/mL"},
      {"measurement": "Minimal Inhibitory Concentration", "setting": "[3]", "result": 32, "unit": "µg/mL"},
      {"measurement": "Minimal Inhibitory Concentration", "setting": "[4]", "result": 64, "unit": "µg/mL"},
      {"measurement": "Minimal Inhibitory Concentration", "setting": "[5]", "result": 4, "unit": "µg/mL"},
      {"measurement": "Minimal Inhibitory Concentration", "setting": "[6]", "result": 4, "unit": "µg/mL"},
      {"measurement": "Minimal Inhibitory Concentration", "setting": "[7]", "result": 32, "unit": "µg/mL"},
      {"measurement": "Inhibition Zone", "setting": "[8]", "result": 14.0, "unit": "mm"},
      {"measurement": "Solubility", "setting": "[9]; in chloroform", "result": "Soluble"},
      {"measurement": "Solubility", "setting": "[9]; in dimethylsulfoxide (DMSO)", "result": "Soluble"},
      {"measurement": "Solubility", "setting": "[9]; in methanol", "result": "Soluble"},
      {"measurement": "Solubility", "setting": "[9]; in water", "result": "practically insoluble"}
    ]}
  ]
}
